Measured values from US9370510B2, “Small molecule compounds to treat hearing loss” (FATE THERAPEUTICS, INC., priority 2012, dated 2016).

Columns and labels:
Format in all cases: cell-based, rat
[1] = system: hair cell-damaged cochlea/modiolus explants; assay: proliferating supporting cells (BrdU+/Sox2+) in hair cell-damaged cochlea/modiolus explants, confocal microscopy; conditions: three days, after 1 mM tobramycin for three days
Method: Postnatal day 5 rat cochlea cochlea/modiolus explants were collected and cultured with 1 mM tobramycin for three days to kill hair cells. Cultures were then treated for three days with DMSO, 3 uM bromo benzyl ellipticinium, 60 uM CHIR99021, or both. Tissues were fixed with 4% paraformaldehyde, and cochlea were removed from surrounding tissue and immunostained with anti-SOX2 and anti-BrdU antibodies. Whole mount confocal microscopy was used to identify proliferating supporting cells (Brdu+/Sox2+) counted in 300 um of the basal-most cochlea. Cochlea were analyzed in triplicates per treatment group.

[2] = system: p27; assay: p27 protein levels in hair cell-damaged (tobramycin) cochlear explants by western blot; conditions: 3 uM, 24 hours, after 1 mM tobramycin for two days, vs vehicle (DMSO) (FIG. 4)
Method: (§1) Postnatal day 5 rat cochlea were collected and cultured with 1 mM tobramycin for two days to kill hair cells. Cultures were then treated with 3 uM bromo benzyl ellipticinium dissolved in DMSO or DMSO alone (negative control) for 24 hours.
(§2) Cochlear explant extracts were analyzed by western blotting. Detergent-solubilized extracts were electrophoresed on a polyacrylamide gel, and the separated denatured proteins transferred to a PVDF membrane. Antibodies to p27, p57, phosphorylated Histone H3, phosphorylated p130 and the house-keeping gene, β-actin were used with infrared dye-conjugated secondary antibodies and quantified by fluorescence. Levels of p27, p57, phosphorylated Histone H3, and phosphorylated p130 were normalized to the beta-actin signal before comparing treated and control samples.

[3] = system: hair cell-damaged cochlear explants; assay: cell proliferation (phosphorylated Histone H3) in hair cell-damaged cochlear explants by western blot; conditions: 3 uM, 24 hours, after 1 mM tobramycin for two days, vs vehicle (DMSO) (FIG. 4)
Method: as §1, §2

SMILES	BrdU+/Sox2+ ells/300 μm of Basal Cochlea (Mean ± SD, n = 3) ([1]; 60 μM) [ells/300 μm]	p27 protein levels [2]	BrdU+/Sox2+ ells/300 μm of Basal Cochlea (Mean ± SD, n = 3) ([1]; 3 μM) [ells/300 μm]	cell proliferation [3]
Cc1c[nH]c(-c2cnc(NCCNc3ccc(C#N)cn3)nc2-c2ccc(Cl)cc2Cl)n1 [CHIR99021, reference compound]	0 ± 0			
Cc1c2cc[n+](Cc3ccccc3)cc2c(C)c2c1[nH]c1ccccc12 [bromo benzyl ellipticinium, Bromo Benzyl Ellipticinium]		reduced	0 ± 0	increased
